Earlier results, collected in patent US20240115713A1, “POLYETHYLENE GLYCOL CONJUGATE DRUG, AND PREPARATION METHOD THEREFOR AND USE THEREOF” (CHONGQING UPGRA BIOTECHNOLOGY CO., LTD., priority 2020, published 2024).

Biological target: FA receptors
Details: read-out: Kd, binding affinity to the FA receptors

Kd: ~0.1 nM
Structure (SMILES): Nc1nc2ncc(CNc3ccc(C(=O)N[C@@H](CCC(=O)O)C(=O)O)cc3)nc2c(=O)[nH]1 [FA, folic acid]
